From the supplement of paper PMC10307832

Tests used:
Test in all cases: relative viability (nuclei count vs DMSO), 5 days (fraction); higher = more cells survive
[1] = system: A-427
Procedure, shortened: (§1)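 Lung cancer cell lines, seeded in 1536-well plates, were treated the following day by pin tool with a single drug or with five library-drug doses (not always all listed) in √10 steps on top of a fixed anchor-drug dose. Cells were fixed and nuclei stained in one step after 5 days, and nuclei were counted. Relative viability is the nuclei count for treated wells divided by that for vehicle wells, reported as medians of duplicate plates.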

[2] = system: ChaGo-K-1
Procedure, shortened: as §1

[3] = system: EKVX
Procedure, shortened: as §1

[4] = system: H3255
Procedure, shortened: as §1

[5] = system: LK-2
Procedure, shortened: as §1

[6] = system: NCI-H1355
Procedure, shortened: as §1

[7] = system: NCI-H1650
Procedure, shortened: as §1

[8] = system: NCI-H1666
Procedure, shortened: as §1

[9] = system: NCI-H1755
Procedure, shortened: as §1

[10] = system: NCI-H1944
Procedure, shortened: as §1

[11] = system: NCI-H2085
Procedure, shortened: as §1

[12] = system: NCI-H2228
Procedure, shortened: as §1

[13] = system: NCI-H2347
Procedure, shortened: as §1

[14] = system: NCI-H3122
Procedure, shortened: as §1

[15] = system: NCI-H322M
Procedure, shortened: as §1

[16] = system: NCI-H358
Procedure, shortened: as §1

[17] = system: NCI-H441
Procedure, shortened: as §1

[18] = system: NCI-H460
Procedure, shortened: as §1

[19] = system: NCI-H520
Procedure, shortened: as §1

[20] = system: NCI-H596
Procedure, shortened: as §1

[21] = system: NCI-H650
Procedure, shortened: as §1

[22] = system: NCI-H838
Procedure, shortened: as §1

[23] = system: SW 1573
Procedure, shortened: as §1

## Cc1cnc(-c2cnc(NCCNc3ccc(C#N)cn3)nc2-c2ccc(Cl)cc2Cl)[nH]1 + C[C@@H](Oc1cc(-c2cnn(C3CCNCC3)c2)cnc1N)c1c(Cl)ccc(F)c1Cl [Crizotinib] (partner 1 µM)
[1]; first compound 0.08 µM
  relative viability: 0.911
[1]; first compound 0.253 µM
  relative viability: 0.972
[1]; first compound 0.8 µM
  relative viability: 0.882
[1]; first compound 2.53 µM
  relative viability: 0.826
[2]; first compound 0.08 µM
  relative viability: 1.17
[2]; first compound 0.253 µM
  relative viability: 0.999
[2]; first compound 0.8 µM
  relative viability: 1.06
[2]; first compound 2.53 µM
  relative viability: 0.989
[3]; first compound 0.08 µM
  relative viability: 0.938
[3]; first compound 0.253 µM
  relative viability: 0.823
[3]; first compound 0.8 µM
  relative viability: 0.854
[3]; first compound 2.53 µM
  relative viability: 0.993
[4]; first compound 0.08 µM
  relative viability: 1.03
[4]; first compound 0.253 µM
  relative viability: 0.809
[4]; first compound 0.8 µM
  relative viability: 0.853
[4]; first compound 2.53 µM
  relative viability: 0.79
[5]; first compound 0.08 µM
  relative viability: 0.194
[5]; first compound 0.253 µM
  relative viability: 0.239
[5]; first compound 0.8 µM
  relative viability: 0.242
[5]; first compound 2.53 µM
  relative viability: 0.236
[6]; first compound 0.08 µM
  relative viability: 1.1
[6]; first compound 0.253 µM
  relative viability: 0.9
[6]; first compound 0.8 µM
  relative viability: 1
[6]; first compound 2.53 µM
  relative viability: 0.992
[7]; first compound 0.08 µM
  relative viability: 0.92
[7]; first compound 0.253 µM
  relative viability: 0.909
[7]; first compound 0.8 µM
  relative viability: 1.07
[7]; first compound 2.53 µM
  relative viability: 0.844
[8]; first compound 0.08 µM
  relative viability: 0.981
[8]; first compound 0.253 µM
  relative viability: 0.822
[8]; first compound 0.8 µM
  relative viability: 1.26
[8]; first compound 2.53 µM
  relative viability: 1.19
[9]; first compound 0.08 µM
  relative viability: 0.853
[9]; first compound 0.253 µM
  relative viability: 0.856
[9]; first compound 0.8 µM
  relative viability: 0.824
[9]; first compound 2.53 µM
  relative viability: 0.804
[10]; first compound 0.08 µM
  relative viability: 1.11
[10]; first compound 0.8 µM
  relative viability: 1.16
[10]; first compound 2.53 µM
  relative viability: 1.1
[11]; first compound 0.08 µM
  relative viability: 0.719
[11]; first compound 0.253 µM
  relative viability: 0.888
[11]; first compound 0.8 µM
  relative viability: 1.06
[11]; first compound 2.53 µM
  relative viability: 0.974
[12]; first compound 0.08 µM
  relative viability: 0.47
[12]; first compound 0.253 µM
  relative viability: 0.412
[12]; first compound 0.8 µM
  relative viability: 0.612
[12]; first compound 2.53 µM
  relative viability: 0.619
[13]; first compound 0.08 µM
  relative viability: 0.734
[13]; first compound 0.253 µM
  relative viability: 0.632
[13]; first compound 0.8 µM
  relative viability: 0.753
[13]; first compound 2.53 µM
  relative viability: 0.741
[14]; first compound 0.08 µM
  relative viability: 0.285
[14]; first compound 0.253 µM
  relative viability: 0.319
[14]; first compound 0.8 µM
  relative viability: 0.253
[14]; first compound 2.53 µM
  relative viability: 0.304
[15]; first compound 0.08 µM
  relative viability: 0.925
[15]; first compound 0.253 µM
  relative viability: 0.81
[15]; first compound 0.8 µM
  relative viability: 0.821
[15]; first compound 2.53 µM
  relative viability: 0.858
[16]; first compound 0.08 µM
  relative viability: 0.609
[16]; first compound 0.253 µM
  relative viability: 0.548
[16]; first compound 0.8 µM
  relative viability: 0.569
[16]; first compound 2.53 µM
  relative viability: 0.46
[17]; first compound 0.08 µM
  relative viability: 0.845
[17]; first compound 0.253 µM
  relative viability: 0.528
[17]; first compound 0.8 µM
  relative viability: 0.713
[17]; first compound 2.53 µM
  relative viability: 0.791
[18]; first compound 0.08 µM
  relative viability: 1.03
[18]; first compound 0.253 µM
  relative viability: 0.857
[18]; first compound 0.8 µM
  relative viability: 0.858
[18]; first compound 2.53 µM
  relative viability: 0.776
[19]; first compound 0.08 µM
  relative viability: 0.901
[19]; first compound 0.253 µM
  relative viability: 0.75
[19]; first compound 0.8 µM
  relative viability: 0.765
[19]; first compound 2.53 µM
  relative viability: 0.755
[20]; first compound 0.08 µM
  relative viability: 0.921
[20]; first compound 0.253 µM
  relative viability: 0.906
[20]; first compound 0.8 µM
  relative viability: 0.968
[20]; first compound 2.53 µM
  relative viability: 0.927
[21]; first compound 0.08 µM
  relative viability: 0.786
[21]; first compound 0.253 µM
  relative viability: 0.676
[21]; first compound 0.8 µM
  relative viability: 0.673
[21]; first compound 2.53 µM
  relative viability: 0.611
[22]; first compound 0.08 µM
  relative viability: 0.855
[22]; first compound 0.253 µM
  relative viability: 0.807
[22]; first compound 0.8 µM
  relative viability: 0.951
[22]; first compound 2.53 µM
  relative viability: 1.01
[23]; first compound 0.08 µM
  relative viability: 0.932
[23]; first compound 0.253 µM
  relative viability: 0.879
[23]; first compound 0.8 µM
  relative viability: 0.785
[23]; first compound 2.53 µM
  relative viability: 0.772
